{"source": "patent US10143696B2", "about": "“Methods and compositions for decreasing gastric emptying” (priority 2015, dated 2018)", "assay_type_in_all_cases": "in vivo, rat", "key": {"[1]": {"system": "Sprague-Dawley rats", "experiment": "Gastric emptying of a test meal in rats", "protocol": "Rats were fasted overnight (16-18 hours) with free access to water. The next morning, compound was administered and animals were individually housed in bedding-free cages with pre-weighed food available ad libitum and access to water for 2 hours. The water and food were then removed and the remaining food was re-weighed. Gastric emptying of the ingested meal was assessed 4 hours later. Animals were euthanized by CO2 inhalation followed by thoracotomy. The abdominal cavity was opened, the pylorus and cardia were clamped and the stomach was removed. The excised stomach was weighed and then opened along the greater curvature, rinsed with tap water, lightly dried and re-weighed. The amount of food in the stomach (grams) was estimated based on the difference between the total weight of the stomach plus its contents and the weight of the stomach after the contents were removed. The meal ingested (food intake) was determined by the difference between pre- and post-feeding weight at the end of the 2 hour period. Gastric emptying during the 4 hour experiment is represented as: Gastric emptying=[1−(gastric content/food intake)]×100. Gastric Secretion\nMale, Sprague-Dawley rats (weighing between 229-264 g each and 4 rats per test group) were fasted overnight (19 hours). The rats were then orally administered 10 mg/kg, 30 mg/kg or 100 mg/kg of Compound A with a 0.5% MC or Capryol:Solutol:Polyethyleneglycol (CSP) vehicle or with a 0.5% MC or CSP vehicle alone. The rats were then placed in individual, bedding-free cages and allowed ad libitium access to pre-weighed food and water for two hours. The food and water were then removed and the food was reweighed. Gastric emptying was then assessed four hours later by euthanizing the rats and analyzing the stomach and stomach contents. […] Data are represented as the means+the standard error of the means (S.E.M). % Gastric Emptying in 4 hours=(1−(gastric content/food intake))×100. […] Data are represented as the means+S.E.M.\nMale, Sprague-Dawley rats (weighing between 235-268 g each and 4-6 rats per test group) were fasted overnight (19 hours). The rats were then subcutaneously administered 10 mg/kg, 30 mg/kg or 100 mg/kg of carbamazepine (Compound B) with a 25% HPBCD vehicle or with a 25% HPBCD vehicle alone. Some test animals were not dosed (i.e., naïve). The rats were then placed in individual, bedding-free cages and allowed ad libitium access to pre-weighed food and water for two hours. The food and water were then removed and the food was reweighed. […] Data are represented as the means+S.E.M. % Gastric Emptying in 4 hours=(1−(gastric content/food intake))×100.\nMale, Sprague-Dawley rats (weighing between 238-274 g each and 6 rats per test group) were fasted overnight (19 hours). The rats were then orally administered 30 mg/kg, 100 mg/kg or 300 mg/kg of carbamazepine (Compound B) with a 0.5% MC vehicle or with a 0.5% MC vehicle alone. The rats were then placed in individual, bedding-free cages and allowed ad libitium access to pre-weighed food and water for two hours. The food and water were then removed and the food was reweighed. […] Data are represented as the means+S.E.M. % Gastric Emptying in 4 hours=(1−(gastric content/food intake))×100.\nMale, Sprague-Dawley rats (weighing between 235-276 g each and 4-6 rats per test group) were fasted overnight (19 hours)."}, "[2]": {"system": "Sprague-Dawley rats", "experiment": "Gastrointestinal transit, charcoal meal assay", "details": "for dosage level with significant effect on stomach weight / stomach weight: charcoal meal assay; for stomach weight: vs vehicle treated animals; for gastrointestinal transit (% small intestinal transit): charcoal meal, 60 minutes pretreatment, vs vehicle", "protocol": "Small intestinal transit was measured based on a known method which involved the oral administration of a charcoal meal (Gmerek et al. (1986). “Independent central and peripheral mediation of morphine-induced inhibition of gastrointestinal transit in rats.” J Pharmacol Exp Ther 236(1): 8-13). Rats were fasted with free access to water for 18 hours. Test compound or vehicle was dosed prior to oral administration of a charcoal slurry containing activated charcoal, flour and water in a ratio of 1:2:7.5 (10 ml/kg orally). One hour after receiving the charcoal slurry, rats were euthanized by CO2 asphyxiation. The stomach and GI tract was excised from each animal. Whole stomach weight was recorded and the length of the small intestine (cm) (stomach to cecum) and the distance (cm) to the leading edge of charcoal was measured. Small intestinal transit data are expressed as a percentage of the distance traveled (i.e. % small intestinal transit=(distance charcoal traveled)/(total length of small intestine (stomach to cecum)×100). Pretreatment times were determined on the basis of pharmacokinetic data (not shown) and were as follows: Compound A, 60 minutes, Compound C, 60 minutes; carbamazepine, 60 minutes. Morphine was administered with a pretreatment time of 30 mins based on previous experience."}, "[3]": {"system": "Sprague-Dawley rats", "experiment": "Gastric secretion volume and pH in fasted rats", "details": "lansoprazole 30 mg/kg orally, alone (Example 17)", "protocol": "Gastric section and acidity was assessed by direct measurement in fasted animals (Melo et al. (2006). “Effect of acid secretion blockade on acute gastric mucosal lesions induced by Tityus serrulatus scorpion toxin in anaesthetized rats.” Toxicon 48(5): 543-549). Rats were fasted with free access to water for 24 hours on wire inserts without bedding. The next day, all rats were dosed orally with 0.5% MC (5 ml/kg) to remove any residual stomach contents and test compound or vehicle was administered. The animals were water deprived for 3 hours, anesthetized with isoflurane (5% in O2), and a laparotomy was conducted followed by tight ligation of the pylorus and cardia. After ligation, the stomach was removed and the rat was immediately euthanized by decapitation. The stomach was opened along the greater curvature and gastric fluid collected into Eppendorf tubes and centrifuged (5 min at 10×1000 g). pH was determined by pipetting gastric fluid directly onto an indicator stick (Whatman, Panpeha Plus, pH0-14). Data are represented as the mean volume and mean pH.\nMale, Sprague-Dawley rats (weighing between 254-270 g each and 6 rats per test group) were fasted overnight (24 hours) on wire inserts without bedding. The rats were first orally dosed with 0.5% MC vehicle and then subcutaneously injected with 3 mg/kg or 10 mg/kg of Compound A with a 25% HPBCD vehicle or with a 25% HPBCD vehicle alone. The test animals were water deprived for 3 hours and then anesthetized with isoflurane and the pylorus and cardia were tightly ligated. The stomachs were then removed and the rats were euthanized. The gastric fluid was removed from the stomachs and collected in eppendorf tubes by cutting along the greatest curvature and spun in a centrifuge. Gastric secretion data were analyzed by a one-way ANOVA using a Bonferroni Multiple Comparison test, where *P<0.05 and **P<0.01 as compared to the appropriate vehicle. Data are represented as the means+S.E.M. PH data were analyzed by a one-way ANOVA using Dunnett's Multiple Comparison Test. Data are represented as the means+S.E.M.\nThis Example measured volume and pH of gastric secretion three hours post subcutaneous administration of 10 mg/kg of Compound A. The animals were water deprived during this time."}, "[4]": {"details": "p.o. 30, 100, 300 mg/kg, 0.5% MC vehicle (Example 5)"}, "[5]": {"details": "s.c. 10, 30, 100 mg/kg, 25% HPBCD vehicle (Example 4)"}, "[6]": {"details": "comparison at equal or similar dosages, routes and vehicles"}, "[7]": {"details": "i.p. 10, 30, 100 mg/kg, 25% HPBCD vehicle (Example 8)"}, "[8]": {"details": "p.o. 10 mg/kg and 30 mg/kg, 0.5% MC vehicle (Example 6)"}, "[9]": {"details": "p.o. 100 mg/kg and 300 mg/kg, 0.5% MC vehicle (Example 7)"}, "[10]": {"details": "p.o. 100 mg/kg, 0.5% MC vehicle (Example 6)"}, "[11]": {"details": "s.c. 10, 30, 100 mg/kg, 25% HPBCD vehicle (Example 6)"}}, "note": "Entries after “also recorded” stand apart in the source; their conditions may differ.", "data": [{"smiles": "NC(=O)N1c2ccccc2C=Cc2ccccc21", "note": "[Compound B, carbamazepine, reference compound]", "values": [{"measurement": "percent of gastric inhibition, oral 0.5% MC compared with subcutaneous 25% HPBCD", "setting": "[1]; equal dosage, Examples 4 and 5", "value": "numerically more potent"}, {"measurement": "% Gastric Emptying in 4 hours", "setting": "[1]; [4]", "value": "inhibits gastric emptying"}, {"measurement": "food intake", "setting": "[1]; [4]", "value": "reduces food intake"}, {"measurement": "stomach weight", "setting": "[1]; [4]", "value": "increases stomach weight"}, {"measurement": "stomach weight", "setting": "[1]; s.c. 100 mg/kg, 25% HPBCD vehicle (Example 4)", "value": "stomach weight increase"}, {"measurement": "% Gastric Emptying in 4 hours", "setting": "[1]; [5]", "value": "inhibits the percent of gastric emptying"}, {"measurement": "food intake", "setting": "[1]; [5]", "value": "food intake decreased"}, {"measurement": "dosage level with significant effect on stomach weight", "setting": "[2]", "value": 30, "unit": "mg/kg"}, {"measurement": "stomach weight", "setting": "[2]", "value": "statistically significant increase in stomach weight"}, {"measurement": "gastrointestinal transit (% small intestinal transit)", "setting": "[2]", "value": "No statistically significant decrease in gastrointestinal transit; also recorded: decreasing trend"}]}, {"smiles": "NC1=N[C@H](O)[C@H]2[C@H]3O[C@]4(O)O[C@@H]([C@@H](O)[C@@]2(N1)[C@@H]4O)[C@]3(O)CO", "note": "[TTX, tetrodotoxin, reference compound]", "values": [{"measurement": "gastric emptying inhibition potency compared between compounds", "setting": "[1]; rat, in vivo", "value": "comparable to that achieved by 30 mg/kg of Compound A administered orally"}, {"measurement": "% Gastric Emptying in 4 hours", "setting": "[1]; rat, in vivo, sc", "value": "inhibits gastric emptying; also recorded: statistically significant decrease in gastric emptying"}, {"measurement": "food intake", "setting": "[1]; rat, in vivo, sc", "value": "reduces food intake; also recorded: dose dependent decrease in food intake"}]}, {"smiles": "O=S(=O)(Nc1nncs1)c1cc(Cl)c(Oc2ccc(C(F)(F)F)cc2-c2ccnnc2)cc1F", "note": "[Compound D]", "values": [{"measurement": "gastric emptying inhibition potency compared between compounds", "setting": "[1]; [6]", "value": "greater gastric emptying inhibition potency than Compounds B and C"}, {"measurement": "stomach weight", "setting": "[1]; i.p. 10 mg/kg and 100 mg/kg, 25% HPBCD vehicle (Example 8)", "value": "increases stomach weight"}, {"measurement": "% Gastric Emptying in 4 hours", "setting": "[1]; [7]", "value": "inhibits gastric emptying"}, {"measurement": "food intake", "setting": "[1]; [7]", "value": "reduces food intake"}]}, {"smiles": "Cc1c(OCC(F)(F)F)ccnc1C[S+]([O-])c1nc2ccccc2[nH]1", "note": "(centres unmarked) [Lansoprazole, lansoprazole, reference compound]", "values": [{"measurement": "pH of gastric secretion", "setting": "[3]", "value": "increase the pH"}, {"measurement": "volume of gastric secretion", "setting": "[3]", "value": "did not affect volume of gastric secretion"}]}, {"smiles": "CN1CC[C@]23c4c5ccc(O)c4O[C@H]2[C@@H](O)C=C[C@H]3[C@H]1C5", "note": "[morphine, reference compound]", "values": [{"measurement": "gastrointestinal transit", "setting": "[2]; rat, in vivo", "value": "less than 35%"}, {"measurement": "stomach weight (average)", "setting": "[2]; rat, in vivo", "value": "over 7 g"}]}, {"smiles": "COc1cc2nc(N3CCN(C(=O)C4CCCO4)CC3)nc(N)c2cc1OC", "note": "(centres unmarked) [terazosin, reference compound]", "values": [{"measurement": "% Gastric Emptying in 4 hours", "setting": "[1]; rat, in vivo", "value": "Neither terazosin nor atenolol alone had a significant effect"}]}, {"smiles": "NC(=O)[C@@H]1CC[C@H](c2ccc(OCc3ccccc3F)cc2)N1", "note": "[Compound C]", "values": [{"measurement": "gastric emptying inhibition potency compared between compounds", "setting": "[1]; [6]", "value": "least potent"}, {"measurement": "% Gastric Emptying in 4 hours", "setting": "[1]; [8]", "value": "did not affect"}, {"measurement": "food intake", "setting": "[1]; [8]", "value": "reduced food intake"}, {"measurement": "stomach weight", "setting": "[1]; [8]", "value": "did not affect"}, {"measurement": "% Gastric Emptying in 4 hours", "setting": "[1]; [9]", "value": "inhibits gastric emptying"}, {"measurement": "stomach weight", "setting": "[1]; [9]", "value": "increases stomach weight"}, {"measurement": "% Gastric Emptying in 4 hours", "setting": "[1]; [10]", "value": "inhibits the percentage of gastric emptying"}, {"measurement": "food intake", "setting": "[1]; [10]", "value": "reduces food intake"}, {"measurement": "stomach weight", "setting": "[1]; [10]", "value": "increases stomach weight"}, {"measurement": "food intake", "setting": "[1]; p.o. 10-300 mg/kg, 0.5% MC vehicle (Example 7)", "value": "reduces food intake"}, {"measurement": "% Gastric Emptying in 4 hours", "setting": "[1]; [11]", "value": "did not inhibit the percentage of gastric emptying"}, {"measurement": "food intake", "setting": "[1]; [11]", "value": "decreased"}, {"measurement": "stomach weight", "setting": "[1]; [11]", "value": "decreased"}, {"measurement": "dosage level with significant effect on stomach weight", "setting": "[2]", "value": 100, "unit": "mg/kg"}, {"measurement": "stomach weight", "setting": "[2]", "value": "statistically significant increase in stomach weight"}, {"measurement": "gastrointestinal transit (% small intestinal transit)", "setting": "[2]", "value": "No statistically significant decrease in gastrointestinal transit"}]}]}
